Measured values as given in patent US20260226064A1, “POLYCYCLIC COMPOUND FOR TREATING NEUROLOGICAL DISEASES AND TUMORS” (Shanghai Institute of Organic Chemistry, Chinese Academy of …, priority 2023, published 2026).

Tested on: acetylated microtubule in HEK293T cells
Experiment: Microtubule-Stabilizing Activity Assay (acetylated microtubule immunoblot, HEK293T, colchicine challenge)
Assay type: cell-based
Conditions: 1 h pre-incubation, then colchicine 1 μM 3 h, relative to CNDR-51657 at 500 nM = 1.00; for Microtubule-Stabilizing Activity 50 nM: compound 50 nM; for Microtubule-Stabilizing Activity 500 nM: compound 500 nM
Description: Compound solvent: 100% dimethyl sulfoxide (DMSO). Cell line: HEK293T (ATCC, CRL3216). Culture conditions: Cells were cultured in Dulbecco's Modified Eagle's Medium (DMEM) containing 10% fetal bovine serum and 1% penicillin/streptomycin. Cells were cultured at 37° C. in a Thermo-Fisher incubator with a humidified atmosphere of 5% carbon dioxide.
One day prior to the experiment, 100,000 cells were seeded at a density of 200,000 cells/ml in a 24-well plate.
On the day of the experiment, 20 μl of PBS phosphate buffer containing the test compound at experimental concentrations or an equivalent volume of DMSO was added to each well. After incubating at 37° C. for 1 hour, colchicine was added to each well at a final concentration of 1 μM, followed by an additional 3-hour incubation at 37° C. The plate was then placed on ice. The medium in each well was removed, and the cells were washed with ice-cold PBS. After aspirating the PBS, 0.1 mL of ice-cold RIPA lysis buffer (containing 0.5% sodium deoxycholate, 0.1% SDS, 1% NP-40, 5 mM EDTA, pH 8.0) was quickly added. Prior to use, a commercial protease inhibitor cocktail (1:500) and 1 μM deacetylase inhibitor Trichostatin A (Sangon Biotech Co., Ltd.) were added to the cell lysis buffer. The cell lysate were transferred to a 1.5 ml centrifuge tube, sonicated, and centrifuged at 13,000 rpm for 10 minutes. The supernatant was collected, and protein concentration was determined using the BCA assay.
Based on existing literature (Black, 1989; Kurt, 2011), acetylated microtubule was used as an indicator of microtubule polymerization to assess the microtubule-stabilizing efficacy of the compounds. HEK293T cell lysates were analyzed by SDS-PAGE (7.5% gel) and immunoblotted using acetylated microtubule antibody (1:20,000, Sigma-Aldrich, T7451) and α-microtubule antibody (1:2,000, Proteintech, 11224-1-AP). After incubation with fluorescent dye-conjugated IgG (1:40,000, Licor), the blots were visualized using an Odyssey-Dlx imaging system. Grayscale analysis was performed using ImageJ.
The compound activity was quantified with the microtubule-stabilizing activity of CNDR-51657 (C5) (Jane, 2016) at 500 nM as 1.00.

| SMILES | Microtubule-Stabilizing Activity 50 nM | Microtubule-Stabilizing Activity 500 nM |
| --- | --- | --- |
| C[C@H](Nc1c(-c2c(F)cc(OC3CC4(CCNCC4)C3)cc2F)c(Cl)nc2ncnn12)C(F)(F)F [Example 7, (S)-6-(4-((7-Azaspiro[3.5]nonan-2-yl)oxy)-2,6-difluorophenyl)-5-chloro-N-(1,1,1-trifluoropropan-2-yl)-[1,2,4]triazolo[1,5-a]pyrimidin-7-amine] | 0.42 | 0.81 |
| C[C@@H](Nc1c(-c2c(F)cc(OCC3[C@H]4CN(C)C[C@@H]34)cc2F)c(Cl)nc2ncnn12)C1CCC1 (stereo partly drawn) [Example 27, 5-Chloro-N—((R)-1-cyclobutylethyl)-6-(2,6-difluoro-4-(((1R,5S,6r)-3-methyl-3-azabicyclo[3.1.0]hexan-6-yl)methoxy)phenyl)-[1,2,4]triazolo[1,5-a]pyrimidin-7-amine] | 1.64 | 1.37 |
| C[C@@H](Nc1c(-c2c(F)cc(/C=C/[C@@H]3[C@H]4CN(C)C[C@@H]34)cc2F)c(Cl)nc2ncnn12)C1CCC1 [Example 56, 5-Chloro-N—((R)-1-cyclobutylethyl)-6-(2,6-difluoro-4-((E)-2-((1R,5S,6s)-3-methyl-3-azabicyclo[3.1.0]hexan-6-yl)vinyl)phenyl)-[1,2,4]triazolo[1,5-a]pyrimidin-7-amine] | 1.47 | 1.69 |
| CC(C)[C@@H](C)Nc1c(-c2c(F)cc(OC3CC4(C3)CC(N(C)C)C4)cc2F)c(Cl)nc2ncnn12 (stereo partly drawn) [Example 10, (R)-5-Chloro-6-(4-((6-(dimethylamino)spiro[3.3]heptan-2-yl)oxy)-2,6-difluorophenyl)-N-(3-methylbutan-2-yl)-[1,2,4]triazolo[1,5-a]pyrimidin-7-amine] | 0.26 | 0.28 |
| Cc1nc2ncnn2c(N[C@H](C)C(C)C)c1-c1c(F)cc(OCC2[C@H]3CNC[C@@H]23)cc1F (stereo partly drawn) [Example 23, 6-(4-(((1R,5S,6r)-3-Azabicyclo[3.1.0]hex-6-yl)methoxy)-2,6-difluorophenyl)-5-methyl-N—((R)-3-methylbutan-2-yl)-[1,2,4]triazolo[1,5-a]pyrimidin-7-amine] | 0.80 | 0.99 |
| CNC1CC2(C1)CC(Oc1cc(F)c(-c3c(Cl)nc4ncnn4c3N[C@H](C)C(C)C)c(F)c1)C2 (stereo partly drawn) [Example 9, (R)-5-Chloro-6-(2,6-difluoro-4-((6-(methylamino)spiro[3.3]heptan-2-yl)oxy)phenyl)-N-(3-methylbutan-2-yl)-[1,2,4]triazolo[1,5-a]pyrimidin-7-amine] | 0.53 | 1.74 |
| CN(C)C1CC2(CC(Oc3cc(F)c(-c4c(Cl)nc5ncnn5c4NCC(F)(F)F)c(F)c3)C2)C1 (stereo not shown) [Example 16] | 0.07 | 1.66 |
| C[C@H](Nc1c(-c2c(F)cc(O[C@@H]3C[C@@H]4CN(C)C[C@@H]4C3)cc2F)c(Cl)nc2ncnn12)C(F)(F)F [Example 39, 5-Chloro-6-(2,6-difluoro-4-(((3aR,5r,6aS)-2-methyloctahydrocyclopenta[c]pyrrol-5-yl)oxy)phenyl)-N—((S)-1,1,1-trifluoropropan-2-yl)-[1,2,4]triazolo[1,5-a]pyrimidin-7-amine] | 0.29 | 0.45 |
| CC(C)[C@@H](C)Nc1c(-c2c(F)cc(OC[C@@H]3[C@@H]4CNC[C@@H]43)cc2F)c(Cl)nc2ncnn12 [Example 29, 6-(4-(((1R,5S,6s)-3-Azabicyclo[3.1.0]hexan-6-yl)methoxy)-2,6-difluorophenyl)-5-chloro-N—((R)-3-methylbutan-2-yl)-[1,2,4]triazolo[1,5-a]pyrimidin-7-amine] | 0.32 | 1.69 |
| CNC1CC2(C1)CC(Oc1cc(F)c(-c3c(Cl)nc4ncnn4c3N[C@H](C)C3CCC3)c(F)c1)C2 (stereo partly drawn) [Example 13, (R)-5-chloro-N-(1-cyclobutylethyl)-6-(2,6-difluoro-4-((6-(methylamino)spiro[3.3]heptan-2-yl)oxy)phenyl)-[1,2,4]triazolo[1,5-a]pyrimidin-7-amine] | 0.35 | 1.39 |
| C[C@H](Nc1c(-c2c(F)cc(OC[C@H]3[C@H]4CN(C)C[C@@H]34)cc2F)c(Cl)nc2ncnn12)C(F)(F)F [Example 32, 5-Chloro-6-(2,6-difluoro-4-(((1R,5S,6s)-3-methyl-3-azabicyclo[3.1.0]hexan-6-yl)methoxy)phenyl)-N—((S)-1,1,1-trifluoropropan-2-yl)-[1,2,4]triazolo[1,5-a]pyrimidin-7-amine] | 0.07 | 2.51 |
| C[C@@H](Nc1c(-c2c(F)cc(OC3CC4(C3)CC(N(C)C)C4)cc2F)c(Cl)nc2ncnn12)C1CCC1 (stereo partly drawn) [Example 14, (R)-5-Chloro-N-(1-cyclobutylethyl)-6-(4-((6-(dimethylamino)spiro[3.3]heptan-2-yl)oxy)-2,6-difluorophenyl)-[1,2,4]triazolo[1,5-a]pyrimidin-7-amine] | 0.23 | 1.98 |
| C[C@H](Nc1c(-c2c(F)cc(O[C@H]3C[C@H]4CNC[C@H]4C3)cc2F)c(Cl)nc2ncnn12)C(F)(F)F [Example 38, 5-Chloro-6-(2,6-difluoro-4-(((3aR,5r,6aS)-octahydrocyclopenta[c]pyrrol-5-yl)oxy)phenyl)-N—((S)-1,1,1-trifluoropropan-2-yl)-[1,2,4]triazolo[1,5-a]pyrimidin-7-amine] | 0.31 | 0.95 |
| CC(C)[C@@H](C)Nc1c(-c2c(F)cc(O[C@H]3C[C@@H]4CN(C)C[C@@H]4C3)cc2F)c(Cl)nc2ncnn12 [Example 41, 5-Chloro-6-(2,6-difluoro-4-(((3aR,5s,6aS)-2-methyloctahydrocyclopenta[c]pyrrol-5-yl)oxy)phenyl)-N—((R)-3-methylbutan-2-yl)-[1,2,4]triazolo[1,5-a]pyrimidin-7-amine] | 0.11 | 1.93 |
| CC(C)[C@@H](C)Nc1c(-c2c(F)cc(OC3CC4(CNC4)C3)cc2F)c(Cl)nc2ncnn12 [Example 1, (R)-6-(4-((2-azaspiro[3.3]hept-6-yl)oxy)-2,6-difluorophenyl)-5-chloro-N-(3-methylbut-2-yl)-[1,2,4]triazolo[1,5-a]pyrimidin-7-amine] | 0.36 | 0.71 |
| C[C@H](Nc1c(-c2c(F)cc(OC3CC4(C3)CC(N(C)C)C4)cc2F)c(Cl)nc2ncnn12)C(F)(F)F (stereo partly drawn) [Example 12, (S)-5-chloro-6-(4-((6-(dimethylamino)spiro[3.3]heptan-2-yl)oxy)-2,6-difluorophenyl)-N-(1,1,1-trifluoropropan-2-yl)-[1,2,4]triazolo[1,5-a]pyrimidin-7-amine] | 0.30 | 0.78 |
| CC(C)[C@@H](C)Nc1c(-c2c(F)cc(OCC3[C@H]4CNC[C@@H]34)cc2F)c(Cl)nc2ncnn12 (stereo partly drawn) [Example 21, 6-(4-(((1R,5S,6r)-3-Azabicyclo[3.1.0]hexan-6-yl)methoxy)-2,6-difluorophenyl)-5-chloro-N—((R)-3-methylbutan-2-yl)-[1,2,4]triazolo[1,5-a]pyrimidin-7-amine] | 1.27 | 1.60 |
| CC(C)[C@@H](C)Nc1c(-c2c(F)cc(O[C@@H]3C[C@H]4CNC[C@H]4C3)cc2F)c(Cl)nc2ncnn12 [Example 40] | 0.17 | 0.69 |
| CNC1CCC2(CC1)CC(Oc1cc(F)c(-c3c(Cl)nc4ncnn4c3N[C@@H](C)C(F)(F)F)c(F)c1)C2 (stereo partly drawn) [Example 19, (S)-5-Chloro-6-(2,6-difluoro-4-((7-(methylamino)spiro[3.5]nonan-2-yl)oxy)phenyl)-N-(1,1,1-trifluoropropan-2-yl)-[1,2,4]triazolo[1,5-a]pyrimidin-7-amine] | 0.16 | 0.62 |
| CC(C)[C@@H](C)Nc1c(-c2c(F)cc(O[C@@H]3C[C@@H]4CN(C)C[C@@H]4C3)cc2F)c(Cl)nc2ncnn12 [Example 37, 5-Chloro-6-(2,6-difluoro-4-(((3aR,5r,6aS)-2-methyloctahydrocyclopenta[c]pyrrol-5-yl)oxy)phenyl)-N—((R)-3-methylbutan-2-yl)-[1,2,4]triazolo[1,5-a]pyrimidin-7-amine] | 0.16 | 0.17 |
